Data reported in PMC11571207, “Stereorandomized Oncocins with Preserved Ribosome Binding and Antibacterial Activity” (Journal of Medicinal Chemistry, 2024).
Converted amounts (≈) assume the structure as drawn. Non-standard residues stand in square brackets, D forms with d. Residues, ends and D or L forms follow the SMILES beside them. No end group written: not given here.

Legend:
[1] = test system: A. baumannii ATCC19606; test: microbe, parasite or virus in culture; conditions: for MIC A. baumannii, 12.5% MHB / MIC A. baumannii, Full MHB: A. baumannii ATCC19606, 16–20 h at 37 °C; for MIC A. baumannii, 12.5% MHB: 12.5% Müller–Hinton medium; for MIC A. baumannii, Full MHB: full Müller–Hinton medium; for MIC A. baumannii ATCC19606: supplement CSV
Source text: (§1) We tested antibacterial effects against the Gram-negative bacteria Escherichia coli, Klebsiella pneumoniae, Pseudomonas aeruginosa, and Acinetobacter baumannii and the Gram-positive methicillin-resistant Staphylococcus aureus (MRSA).
(§2) Bacterial growth assay (Figure S1), transmission electron microscopy (Figure S6), serum stability assay (Figure S7), circular dichroism spectral recording (Figures S8 and S9), antimicrobial and hemolysis activity assays (MIC and MHC), and vesicle leakage assay were carried out as described in earlier publications.[43],[44]
(§3) Minimum inhibitory concentration assay
(§4) Antimicrobial activity was assayed against P. aeruginosa PAO1, K. pneumoniae NCTC418, E. coli W3110, A. baumannii ATCC 19606, methicillin-resistant S. aureus COL (MRSA), and for selected peptides on P. aeruginosa PA14 and the polymyxin-B-resistant derivative PA14 2P4, as well as the clinical isolates ZEM-1A and ZEM9A, K. pneumoniae OXA-48, S. aureus Newman, Enterobacter cloacae and Burkholderia cenocepacia. The minimal inhibitory concentration (MIC) was determined by using broth microdilution method. A colo ny of bacteria was picked and grown in Luria-Bertani (LB) medium overnight at 37°C. For E. coli BW25113 sbmA::kan the medium was supplemented with 25 mg/L of kanamycin. The next day, the culture was then regrown in LB medium to log phase (OD600 = 0.6 to 0.8), which lasted approximately 4 h, and diluted to an OD600 of 0.022 in the desired medium. Stock solutions of 1 mg/mL of the samples were prepared in sterilized milliQ water and diluted to the beginning concentration of 64 μg/mL in 300 μL Mueller Hinton (MH)-medium. The diluted samples were added to first well of 96-well microtiter plate (TPP, untreated, Faust Laborbedarf, AG, Schaffhausen) and diluted serially by ½. Finally, 4 μL of the bacterial suspension was inoculated into the sample solutions (150 μL/well) with a final inoculation of about 5∙10^5 CFU/mL. The plates were then incubated at 37°C for 15-18h. For each assay, sterility (broth only) and growth control (broth with bacterial inoculum, without antibiotics) were checked with two columns in the plate. The next day, 15 μL of 3-(4,5-dimethylthiazol-2-yl)-2,5-diphenyltetrazolium bromide (MTT) was added to each well of the plate, such a way that MIC was defined as the lowest concentration of the peptide that inhibited visible growth of the tested

[2] = test system: E. coli W3110; test: microbe, parasite or virus in culture; conditions: for MIC E. coli, 12.5% MHB / MIC E. coli, Full MHB: E. coli W3110, 16–20 h at 37 °C, broth microdilution; for MIC E. coli, 12.5% MHB: 12.5% Müller–Hinton medium; for MIC E. coli, Full MHB: full Müller–Hinton medium; for MIC E. coli W3110: supplement CSV
Source text: as §1, §2, §3, §4

[3] = test system: K. pneumoniae NCTC 418; test: microbe, parasite or virus in culture; conditions: for MIC K. pneumoniae, 12.5% MHB / MIC K. pneumoniae, Full MHB: K. pneumoniae NCTC 418, 16–20 h at 37 °C; for MIC K. pneumoniae, 12.5% MHB: 12.5% Müller–Hinton medium; for MIC K. pneumoniae, Full MHB: full Müller–Hinton medium; for MIC K. pneumoniae NCTC418: supplement CSV
Source text: as §1, §2, §3, §4

[4] = test system: P. aeruginosa PAO1; test: microbe, parasite or virus in culture; conditions: for MIC P. aeruginosa, 12.5% MHB / MIC P. aeruginosa, Full MHB: P. aeruginosa PAO1, 16–20 h at 37 °C; for MIC P. aeruginosa, 12.5% MHB: 12.5% Müller–Hinton medium; for MIC P. aeruginosa, Full MHB: full Müller–Hinton medium; for MIC P. aeruginosa PAO1: supplement CSV
Source text: as §1, §2, §3, §4

[5] = test system: S. aureus COL (MRSA); test: microbe, parasite or virus in culture; conditions: for MIC S. aureus, 12.5% MHB / MIC S. aureus, Full MHB: S. aureus COL (MRSA), 16–20 h at 37 °C; for MIC S. aureus, 12.5% MHB: 12.5% Müller–Hinton medium; for MIC S. aureus, Full MHB: full Müller–Hinton medium; for MIC S. aureus COL (MRSA): supplement CSV
Source text: as §1, §2, §3, §4

[6] = test system: human red blood cells; test: Hemolysis assay, minimum hemolytic concentration; conditions: for Haemolysis on hRBC, MHC: 2.5% human red blood cells (final) in 10 mM phosphate, 150 mM NaCl, pH 7.4, 25 °C, 4 h, visual inspection; for MHC human red blood cells: supplement CSV

Compound | MIC A. baumannii, 12.5% MHB [1] [µg/mL] | MIC A. baumannii, Full MHB [1] [µg/mL] | MIC A. baumannii ATCC19606 ([1]; 12.5% MH pH 7.4) [µg/mL] | MIC A. baumannii ATCC19606 ([1]; full MH pH 7.4) [µg/mL] | MIC E. coli, 12.5% MHB [2] [µg/mL] | MIC E. coli, Full MHB [2] [µg/mL] | MIC E. coli W3110 ([2]; 12.5% MH pH 7.4) [µg/mL] | MIC E. coli W3110 ([2]; full MH pH 7.4) [µg/mL] | MIC K. pneumoniae, 12.5% MHB [3] [µg/mL] | MIC K. pneumoniae, Full MHB [3] [µg/mL] | MIC K. pneumoniae NCTC418 ([3]; 12.5% MH pH 7.4) [µg/mL] | MIC K. pneumoniae NCTC418 ([3]; full MH pH 7.4) [µg/mL] | MIC P. aeruginosa, 12.5% MHB [4] [µg/mL] | MIC P. aeruginosa, Full MHB [4] [µg/mL] | MIC P. aeruginosa PAO1 ([4]; 12.5% MH pH 7.4) [µg/mL] | MIC P. aeruginosa PAO1 ([4]; full MH pH 7.4) [µg/mL] | MIC S. aureus, 12.5% MHB [5] | MIC S. aureus, Full MHB [5] | MIC S. aureus COL (MRSA) ([5]; 12.5% MH pH 7.4) [µg/mL] | MIC S. aureus COL (MRSA) ([5]; full MH pH 7.4) [µg/mL] | also measured
CC[C@H](C)[C@H](NC(=O)[C@H](CCCNC(=N)N)NC(=O)[C@H](CCCNC(=N)N)NC(=O)[C@@H]1CCCN1C(=O)[C@H]1CCCN1C(=O)[C@H](CCCNC(=N)N)NC(=O)[C@@H]1CCCN1C(=O)[C@H](CCCNC(=N)N)NC(=O)[C@@H]1CCCN1C(=O)[C@H](CC(C)C)NC(=O)[C@H](Cc1ccc(O)cc1)NC(=O)[C@@H]1CCCN1C(=O)[C@@H]1CCCN1C(=O)[C@H](CCCCN)NC(=O)[C@H](CC(=O)O)NC(=O)[C@@H](N)C(C)C)C(=O)N[C@@H](Cc1ccc(O)cc1)C(=O)N[C@@H](CC(N)=O)C(=O)N[C@@H](CCCNC(=N)N)C(N)=O [DP12-Onc] (H-VDKPPYLPRPR[dP]PRRIYNR-NH2) | 8 (≈ 3.35 µM) | 16 (≈ 6.69 µM) | 8 (≈ 3.35 µM) | 16 (≈ 6.69 µM) | 2 (≈ 0.837 µM) | 8 (≈ 3.35 µM) | 2 (≈ 0.837 µM) | 8 (≈ 3.35 µM) | 4 (≈ 1.67 µM) | 16 (≈ 6.69 µM) | 4 (≈ 1.67 µM) | 16 (≈ 6.69 µM) | 16 (≈ 6.69 µM) | > 64 | 16 (≈ 6.69 µM) | >64 | >64 / 64 μg/mL | >64 / 64 μg/mL | 64 (≈ 26.8 µM) | >64 | Haemolysis on hRBC, MHC [6]: >1000 µg/mL; MHC human red blood cells [6]: >1000 µg/mL
CC[C@H](C)[C@H](NC(=O)[C@H](CCCNC(=N)N)NC(=O)[C@H](CCCNC(=N)N)NC(=O)[C@@H]1CCCN1C(=O)[C@@H]1CCCN1C(=O)[C@@H](CCCNC(=N)N)NC(=O)[C@@H]1CCCN1C(=O)[C@H](CCCNC(=N)N)NC(=O)[C@@H]1CCCN1C(=O)[C@H](CC(C)C)NC(=O)[C@H](Cc1ccc(O)cc1)NC(=O)[C@@H]1CCCN1C(=O)[C@@H]1CCCN1C(=O)[C@H](CCCCN)NC(=O)[C@H](CC(=O)O)NC(=O)[C@@H](N)C(C)C)C(=O)N[C@@H](Cc1ccc(O)cc1)C(=O)N[C@@H](CC(N)=O)C(=O)N[C@@H](CCCNC(=N)N)C(N)=O [DR11-Onc] (H-VDKPPYLPRP[dR]PPRRIYNR-NH2) | 16 (≈ 6.69 µM) | 32 (≈ 13.4 µM) | 16 (≈ 6.69 µM) | 32 (≈ 13.4 µM) | 2 (≈ 0.837 µM) | 16 (≈ 6.69 µM) | 2 (≈ 0.837 µM) | 16 (≈ 6.69 µM) | 2 (≈ 0.837 µM) | 16 (≈ 6.69 µM) | 2 (≈ 0.837 µM) | 16 (≈ 6.69 µM) | 16 (≈ 6.69 µM) | > 64 | 16 (≈ 6.69 µM) | >64 | >64 / >64 μg/mL | >64 / >64 μg/mL | >64 | >64 | Haemolysis on hRBC, MHC [6]: >1000 µg/mL; MHC human red blood cells [6]: >1000 µg/mL
CC[C@@H](C)[C@@H](NC(=O)[C@@H](CCCNC(=N)N)NC(=O)[C@@H](CCCNC(=N)N)NC(=O)[C@H]1CCCN1C(=O)[C@H]1CCCN1C(=O)[C@@H](CCCNC(=N)N)NC(=O)[C@@H]1CCCN1C(=O)[C@H](CCCNC(=N)N)NC(=O)[C@@H]1CCCN1C(=O)[C@H](CC(C)C)NC(=O)[C@H](Cc1ccc(O)cc1)NC(=O)[C@@H]1CCCN1C(=O)[C@@H]1CCCN1C(=O)[C@H](CCCCN)NC(=O)[C@H](CC(=O)O)NC(=O)[C@@H](N)C(C)C)C(=O)N[C@H](Cc1ccc(O)cc1)C(=O)N[C@H](CC(N)=O)C(=O)N[C@H](CCCNC(=N)N)C(N)=O [D9Cterm-Onc] (H-VDKPPYLPRP[dR][dP][dP][dR][dR][dI][dY][dN][dR]-NH2) | 4 (≈ 1.67 µM) | 16 (≈ 6.69 µM) | 4 (≈ 1.67 µM) | 16 (≈ 6.69 µM) | 2 (≈ 0.837 µM) | 4 (≈ 1.67 µM) | 2 (≈ 0.837 µM) | 4 (≈ 1.67 µM) | 2 (≈ 0.837 µM) | 4 (≈ 1.67 µM) | 2 (≈ 0.837 µM) | 4 (≈ 1.67 µM) | 4 (≈ 1.67 µM) | 64 (≈ 26.8 µM) | 4 (≈ 1.67 µM) | 64 (≈ 26.8 µM) | >64 / >64 μg/mL | >64 / >64 μg/mL | >64 | >64 | Haemolysis on hRBC, MHC [6]: >1000 µg/mL; MHC human red blood cells [6]: >1000 µg/mL
VDKPPYLPRPRPPRRIYNR [sr3N5Cterm-Onc] (VDKPPYLPRPRPPRRIYNR-NH2; also: residues 1-3 and 15-19 stereorandomized (1:1 L/D mixture)) | 4 | 32 | 4 | 32 | 1 | 8 | 1 | 8 | 1 | 16 | 1 | 16 | 8 | > 64 | 8 | >64 | >64 / 64 μg/mL | >64 / 64 μg/mL | 64 | >64 | Haemolysis on hRBC, MHC [6]: >1000 µg/mL; MHC human red blood cells [6]: >1000 µg/mL
VDKPPYLPRPRPPRRIYNR [sr3Nterm-Onc] (VDKPPYLPRPRPPRRIYNR-NH2; also: residues 1-3 stereorandomized (1:1 L/D mixture)) | 8 | 64 | 8 | 64 | 2 | 16 | 2 | 16 | 2 | 16 | 2 | 16 | 16 | > 64 | 16 | >64 | >64 / 64 μg/mL | >64 / 64 μg/mL | 64 | >64 | Haemolysis on hRBC, MHC [6]: >1000 µg/mL; MHC human red blood cells [6]: >1000 µg/mL
